# Results: paper PMC10343355, “Finding the Right Solvent: A Novel Screening Protocol for Identifying Environmentally Friendly and Cost-Effective Options for Benzenesulfonamide” (Molecules, 2023)
# Assay: Shake-flask solubility of BSA in neat solvents and aqueous binary mixtures, spectrophotometric determination at 264 nm
# Type: physicochemical
# Details: for log(x1)exp: mole fraction solubility
# Method: In order to determine the solubility of BSA in the studied solvents, excess amounts of it were added to test tubes pre-filled with a particular solvent or a binary mixture of this solvent and water in different molar proportions. Saturated solutions prepared in this manner were placed in an ES-20/60 Orbital Shaker Incubator from Biosan (Riga, Latvia) and incubated for 24 h at different temperatures. Four temperatures were used in the range from 25 °C to 40 °C with 5 °C intervals. The temperature in the incubator was adjusted with 0.1-degree accuracy with a 0.5-degree variance in a 24 h cycle. Simultaneously, the samples were mixed at 60 rev/min. In the next stage, the filtration of the samples took place, utilizing syringes equipped with PTFE filters with 0.22 µm pore size. Since the temperature difference between the measured solutions and used instruments can possibly lead to precipitation, all of the used test tubes, pipette tips, syringes, and filters were initially heated. This was carried out by placing them in the same incubator as the samples and heating them at exactly the same temperature prior to the handling of the samples. This was particularly important in the case of elevated temperatures, as the difference between, e.g., 40 °C and room temperature is quite extensive. Then, small amounts of the obtained filtrate were diluted in different test tubes containing methanol and measured spectrophotometrically. In order to determine the mole fractions of BSA in the samples, their density was also measured by weighing a 1 mL volume of each of the solutions, taken by using an Eppendorf Reference 2 pipette (Hamburg, Germany), in 10 mL volumetric flasks. The systematic error of the pipette was 6 μL. The precision of the RADWAG (Radom, Poland) AS 110.R2 PLUS analytical balance that was used in this study was 0.1 mg. The A360 spectrophotometer from AOE Instruments (Shanghai, China) was used for solubility determination. The spectra were recorded in the 190 nm to 400 nm wavelength range with a 1 nm resolution. Methanol was used for both the dilution of the samples and the initial calibration of the spectrophotometer. The analytical wavelength was determined to be 264 nm, and the absorbance of the samples at this wavelength was used for the determination of the BSA concentration in the samples and the subsequent calculation of its mole fractions. Three separate measurements were used, and the resulting values were averaged. The calibration curve for BSA was generated by preparing successive dilutions of an initial stock solution and performing spectrophotometric measurements of the resulting solutions with decreasing concentrations. The molar concentrations of measured solutions were 3.19 × 10^−3, 2.84 × 10^−3, 2.46 × 10^−3, 2.13 × 10^−3, 1.88 × 10^−3, 1.60 × 10^−3, 1.26 × 10^−3, 9.53 × 10^−4, 5.70 × 10^−4, and 4.80 × 10^−4 M). The relationship between the absorbance values at 264 nm and the solution concentration was described by the linear equation A = 470.86 × C + 0.0093 (A—absorbance; C—molar concentration), with a determination coefficient R^2 equal 0.9996, denoting high linearity.
structure (smiles),measurement,setting,value
"NS(=O)(=O)c1ccccc1 [BSA, Benzenesulfonamide]","solubility, X^exp × 10^3","4FM+water, x2*(4FM)=0.2, 298.15 K",23.42 ± 0.86 mole fraction × 10^3
same,"solubility, X^exp × 10^3","4FM+water, x2*(4FM)=0.2, 303.15 K",32.61 ± 1.65 mole fraction × 10^3
same,"solubility, X^exp × 10^3","4FM+water, x2*(4FM)=0.2, 308.15 K",48.14 ± 1.59 mole fraction × 10^3
same,"solubility, X^exp × 10^3","4FM+water, x2*(4FM)=0.2, 313.15 K",69.19 ± 2.56 mole fraction × 10^3
same,"solubility, X^exp × 10^3","4FM+water, x2*(4FM)=0.4, 298.15 K",45.67 ± 0.33 mole fraction × 10^3
same,"solubility, X^exp × 10^3","4FM+water, x2*(4FM)=0.4, 303.15 K",68.93 ± 1.12 mole fraction × 10^3
same,"solubility, X^exp × 10^3","4FM+water, x2*(4FM)=0.4, 308.15 K",102.78 ± 3.56 mole fraction × 10^3
same,"solubility, X^exp × 10^3","4FM+water, x2*(4FM)=0.4, 313.15 K",142.57 ± 6.01 mole fraction × 10^3
same,"solubility, X^exp × 10^3","4FM+water, x2*(4FM)=0.6, 298.15 K",61.48 ± 0.85 mole fraction × 10^3
same,"solubility, X^exp × 10^3","4FM+water, x2*(4FM)=0.6, 303.15 K",101.16 ± 0.91 mole fraction × 10^3
same,"solubility, X^exp × 10^3","4FM+water, x2*(4FM)=0.6, 308.15 K",146.31 ± 6.19 mole fraction × 10^3
same,"solubility, X^exp × 10^3","4FM+water, x2*(4FM)=0.6, 313.15 K",196.38 ± 7.85 mole fraction × 10^3
same,"solubility, X^exp × 10^3","4FM+water, x2*(4FM)=0.8, 298.15 K",68.53 ± 0.63 mole fraction × 10^3
same,"solubility, X^exp × 10^3","4FM+water, x2*(4FM)=0.8, 303.15 K",118.09 ± 6.45 mole fraction × 10^3
same,"solubility, X^exp × 10^3","4FM+water, x2*(4FM)=0.8, 308.15 K",178.71 ± 6.67 mole fraction × 10^3
same,"solubility, X^exp × 10^3","4FM+water, x2*(4FM)=0.8, 313.15 K",242.26 ± 2.09 mole fraction × 10^3
same,"solubility, X^exp × 10^3","DMF+water, x2*(DMF)=0.2, 298.15 K",42.18 ± 0.83 mole fraction × 10^3
same,"solubility, X^exp × 10^3","DMF+water, x2*(DMF)=0.2, 303.15 K",46.69 ± 1.75 mole fraction × 10^3
same,"solubility, X^exp × 10^3","DMF+water, x2*(DMF)=0.2, 308.15 K",54.78 ± 1.76 mole fraction × 10^3
same,"solubility, X^exp × 10^3","DMF+water, x2*(DMF)=0.2, 313.15 K",63.21 ± 1.40 mole fraction × 10^3
same,"solubility, X^exp × 10^3","DMF+water, x2*(DMF)=0.4, 298.15 K",161.16 ± 3.97 mole fraction × 10^3
same,"solubility, X^exp × 10^3","DMF+water, x2*(DMF)=0.4, 303.15 K",179.12 ± 10.87 mole fraction × 10^3
same,"solubility, X^exp × 10^3","DMF+water, x2*(DMF)=0.4, 308.15 K",202.07 ± 2.93 mole fraction × 10^3
same,"solubility, X^exp × 10^3","DMF+water, x2*(DMF)=0.4, 313.15 K",233.72 ± 14.10 mole fraction × 10^3
same,"solubility, X^exp × 10^3","DMF+water, x2*(DMF)=0.6, 298.15 K",231.63 ± 6.50 mole fraction × 10^3
same,"solubility, X^exp × 10^3","DMF+water, x2*(DMF)=0.6, 303.15 K",253.07 ± 9.75 mole fraction × 10^3
same,"solubility, X^exp × 10^3","DMF+water, x2*(DMF)=0.6, 308.15 K",281.23 ± 1.05 mole fraction × 10^3
same,"solubility, X^exp × 10^3","DMF+water, x2*(DMF)=0.6, 313.15 K",319.28 ± 11.90 mole fraction × 10^3
same,"solubility, X^exp × 10^3","DMF+water, x2*(DMF)=0.8, 298.15 K",268.17 ± 4.27 mole fraction × 10^3
same,"solubility, X^exp × 10^3","DMF+water, x2*(DMF)=0.8, 303.15 K",286.69 ± 8.71 mole fraction × 10^3
same,"solubility, X^exp × 10^3","DMF+water, x2*(DMF)=0.8, 308.15 K",317.90 ± 8.49 mole fraction × 10^3
same,"solubility, X^exp × 10^3","DMF+water, x2*(DMF)=0.8, 313.15 K",356.68 ± 8.53 mole fraction × 10^3
same,"solubility, X^exp × 10^3","DMSO+water, x2*(DMSO)=0.2, 298.15 K",35.84 ± 1.56 mole fraction × 10^3
same,"solubility, X^exp × 10^3","DMSO+water, x2*(DMSO)=0.2, 303.15 K",40.39 ± 0.41 mole fraction × 10^3
same,"solubility, X^exp × 10^3","DMSO+water, x2*(DMSO)=0.2, 308.15 K",45.37 ± 0.84 mole fraction × 10^3
same,"solubility, X^exp × 10^3","DMSO+water, x2*(DMSO)=0.2, 313.15 K",50.66 ± 1.03 mole fraction × 10^3
same,"solubility, X^exp × 10^3","DMSO+water, x2*(DMSO)=0.4, 298.15 K",136.28 ± 5.21 mole fraction × 10^3
same,"solubility, X^exp × 10^3","DMSO+water, x2*(DMSO)=0.4, 303.15 K",153.75 ± 0.89 mole fraction × 10^3
same,"solubility, X^exp × 10^3","DMSO+water, x2*(DMSO)=0.4, 308.15 K",175.06 ± 5.16 mole fraction × 10^3
same,"solubility, X^exp × 10^3","DMSO+water, x2*(DMSO)=0.4, 313.15 K",198.55 ± 12.9 mole fraction × 10^3
same,"solubility, X^exp × 10^3","DMSO+water, x2*(DMSO)=0.6, 298.15 K",257.01 ± 5.42 mole fraction × 10^3
same,"solubility, X^exp × 10^3","DMSO+water, x2*(DMSO)=0.6, 303.15 K",279.84 ± 7.39 mole fraction × 10^3
same,"solubility, X^exp × 10^3","DMSO+water, x2*(DMSO)=0.6, 308.15 K",307.25 ± 8.78 mole fraction × 10^3
same,"solubility, X^exp × 10^3","DMSO+water, x2*(DMSO)=0.6, 313.15 K",335.53 ± 2.01 mole fraction × 10^3
same,"solubility, X^exp × 10^3","DMSO+water, x2*(DMSO)=0.8, 298.15 K",301.83 ± 4.01 mole fraction × 10^3
same,"solubility, X^exp × 10^3","DMSO+water, x2*(DMSO)=0.8, 303.15 K",324.42 ± 10.85 mole fraction × 10^3
same,"solubility, X^exp × 10^3","DMSO+water, x2*(DMSO)=0.8, 308.15 K",352.69 ± 7.04 mole fraction × 10^3
same,"solubility, X^exp × 10^3","DMSO+water, x2*(DMSO)=0.8, 313.15 K",381.96 ± 8.16 mole fraction × 10^3
same,"solubility, X^exp × 10^3","DMSO+water, x2*=0.0 (neat water), 298.15 K",0.56 ± 0.03 mole fraction × 10^3
same,"solubility, X^exp × 10^3","DMSO+water, x2*=0.0 (neat water), 303.15 K",0.83 ± 0.01 mole fraction × 10^3
same,"solubility, X^exp × 10^3","DMSO+water, x2*=0.0 (neat water), 308.15 K",1.17 ± 0.04 mole fraction × 10^3
same,"solubility, X^exp × 10^3","DMSO+water, x2*=0.0 (neat water), 313.15 K",1.53 ± 0.03 mole fraction × 10^3
same,log(x1)exp,"solvent 4-Formylmorpholine, T 25.00 °C",-1.16
same,log(x1)exp,"solvent 4-Formylmorpholine, T 30.00 °C",-0.88
same,log(x1)exp,"solvent 4-Formylmorpholine, T 35.00 °C",-0.70
same,log(x1)exp,"solvent 4-Formylmorpholine, T 40.00 °C",-0.55
same,log(x1)exp,"solvent DMF, T 25.00 °C",-0.54
same,log(x1)exp,"solvent DMF, T 30.00 °C",-0.51
same,log(x1)exp,"solvent DMF, T 35.00 °C",-0.47
same,log(x1)exp,"solvent DMF, T 40.00 °C",-0.42
same,log(x1)exp,"solvent DMSO, T 25.00 °C",-0.50
same,log(x1)exp,"solvent DMSO, T 30.00 °C",-0.47
same,log(x1)exp,"solvent DMSO, T 35.00 °C",-0.43
same,log(x1)exp,"solvent DMSO, T 40.00 °C",-0.40
same,log(x1)exp,"solvent water, T 25.00 °C",-3.25
same,log(x1)exp,"solvent water, T 30.00 °C",-3.08
same,log(x1)exp,"solvent water, T 35.00 °C",-2.93
same,log(x1)exp,"solvent water, T 40.00 °C",-2.82
same,"solubility, X^exp × 10^3","x2*=1.0 (neat 4FM), 298.15 K",69.45 ± 0.49 mole fraction × 10^3
same,"solubility, X^exp × 10^3","x2*=1.0 (neat 4FM), 303.15 K",132.21 ± 4.61 mole fraction × 10^3
same,"solubility, X^exp × 10^3","x2*=1.0 (neat 4FM), 308.15 K",200.82 ± 7.43 mole fraction × 10^3
same,"solubility, X^exp × 10^3","x2*=1.0 (neat 4FM), 313.15 K",279.66 ± 2.42 mole fraction × 10^3
same,"solubility, X^exp × 10^3","x2*=1.0 (neat DMF), 298.15 K",288.65 ± 1.99 mole fraction × 10^3
same,"solubility, X^exp × 10^3","x2*=1.0 (neat DMF), 303.15 K",308.50 ± 5.81 mole fraction × 10^3
same,"solubility, X^exp × 10^3","x2*=1.0 (neat DMF), 308.15 K",336.89 ± 13.52 mole fraction × 10^3
same,"solubility, X^exp × 10^3","x2*=1.0 (neat DMF), 313.15 K",378.60 ± 8.94 mole fraction × 10^3
same,"solubility, X^exp × 10^3","x2*=1.0 (neat DMSO), 298.15 K",319.77 ± 2.83 mole fraction × 10^3
same,"solubility, X^exp × 10^3","x2*=1.0 (neat DMSO), 303.15 K",342.67 ± 5.19 mole fraction × 10^3
same,"solubility, X^exp × 10^3","x2*=1.0 (neat DMSO), 308.15 K",369.38 ± 9.57 mole fraction × 10^3
same,"solubility, X^exp × 10^3","x2*=1.0 (neat DMSO), 313.15 K",402.31 ± 9.04 mole fraction × 10^3
